US20130116241A1, “NOVEL INHIBITOR COMPOUNDS OF PHOSPHODIESTERASE TYPE 10A” (AbbVie Inc., priority 2011, published 2013)
Structures can show the parent of a compound that is named as a salt.

Target: human PDE10A (UniProt Q9Y233)
Experiment: Measurement of PDE activity (recombinant enzyme, HTRF cAMP kit)
Assay type: biochemical
Conditions: Table 1, substrate 20 nM for PDE10, 60 minutes at 29 C, read-out: IC50
Method in brief: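 HTRF detection of cAMP left after hydrolysis, expressed as percent of uninhibited control to derive IC50. Reaction: serially diluted inhibitor mixed with recombinant enzyme, started with 20 nM cAMP, 60 min at 29 °C in Tris-HCl pH 7.5 buffer containing MgCl2 and BSA.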

Sequence of human PDE10A (Q9Y233 290-1055 limits assumed): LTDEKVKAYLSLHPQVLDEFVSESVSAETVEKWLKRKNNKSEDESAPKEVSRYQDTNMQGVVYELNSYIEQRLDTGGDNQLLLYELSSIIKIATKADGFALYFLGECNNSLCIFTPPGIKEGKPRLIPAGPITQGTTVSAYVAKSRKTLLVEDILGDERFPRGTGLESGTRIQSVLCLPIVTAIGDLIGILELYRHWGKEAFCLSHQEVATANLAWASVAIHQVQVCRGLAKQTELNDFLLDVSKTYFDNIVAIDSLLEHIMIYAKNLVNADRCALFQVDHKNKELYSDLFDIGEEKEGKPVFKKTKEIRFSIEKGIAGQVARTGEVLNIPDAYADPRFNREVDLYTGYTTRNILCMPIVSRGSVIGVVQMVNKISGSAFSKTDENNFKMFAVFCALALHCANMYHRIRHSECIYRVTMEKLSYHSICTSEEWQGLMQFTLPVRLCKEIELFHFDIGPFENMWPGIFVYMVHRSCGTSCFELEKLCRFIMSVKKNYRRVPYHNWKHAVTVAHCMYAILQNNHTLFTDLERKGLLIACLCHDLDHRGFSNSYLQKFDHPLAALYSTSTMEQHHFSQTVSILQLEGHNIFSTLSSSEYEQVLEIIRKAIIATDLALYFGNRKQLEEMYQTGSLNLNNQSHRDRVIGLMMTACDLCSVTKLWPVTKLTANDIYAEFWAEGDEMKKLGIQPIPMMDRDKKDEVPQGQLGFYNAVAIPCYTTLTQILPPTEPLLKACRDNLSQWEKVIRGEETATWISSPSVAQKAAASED

| IC50 | Structure (SMILES) |
| --- | --- |
| 100 to 200 nM | COc1cccc(-c2cccc3cnn(CCc4ccc5ccccc5n4)c(=O)c23)c1 [Example 113, 8-(3-Methoxyphenyl)-2-[2-(quinolin-2-yl)ethyl]phthalazin-1(2H)-one] |
| 100 to 200 nM | N#Cc1cccc(-c2cccc3cnn(CCc4ccc5ccccc5n4)c(=O)c23)c1 [Example 114, 3-{4-Oxo-3-[2-(quinolin-2-yl)ethyl]-3,4-dihydrophthalazin-5-yl}benzonitrile] |
| < 100 nM | O=c1c2c(-c3cccc(F)c3)cccc2cnn1CCc1ccc2ccccc2n1 [Example 115, 8-(3-Fluorophenyl)-2-[2-(quinolin-2-yl)ethyl]phthalazin-1(2H)-one] |
| < 100 nM | O=c1c2c(-c3cccc(O)c3)cccc2cnn1CCc1ccc2ccccc2n1 [Example 116, 8-(3-Hydroxyphenyl)-2-[2-(quinolin-2-yl)ethyl]phthalazin-1(2H)-one] |
| 100 to 200 nM | CN(C)C(=O)c1cccc(-c2cccc3cnn(CCc4ccc5ccccc5n4)c(=O)c23)c1 [Example 117, N,N-Dimethyl-3-{4-oxo-3-[2-(quinolin-2-yl)ethyl]-3,4-dihydrophthalazin-5-yl}benzamide] |
| 200 to 500 nM | O=c1c2c(-c3cccs3)cccc2cnn1CCc1ccc2ccccc2n1 [Example 119, 2-[2-(Quinolin-2-yl)ethyl]-8-(thiophen-2-yl)phthalazin-1(2H)-one] |
| 100 to 200 nM | Cc1n[nH]c(C)c1-c1cccc2cnn(CCc3ccc4ccccc4n3)c(=O)c12 [Example 121, 8-(3,5-Dimethyl-1H-pyrazol-4-yl)-2-[2-(quinolin-2-yl)ethyl]phthalazin-1(2H)-one] |
| 200 to 500 nM | O=c1c2c(-c3ccc4[nH]ccc4c3)cccc2cnn1CCc1ccc2ccccc2n1 [Example 122, 8-(1H-Indol-5-yl)-2-[2-(quinolin-2-yl)ethyl]phthalazin-1(2H)-one] |
| 200 to 500 nM | O=c1c2c(-c3ccc4cc[nH]c4c3)cccc2cnn1CCc1ccc2ccccc2n1 [Example 123, 8-(1H-Indol-6-yl)-2-[2-(quinolin-2-yl)ethyl]phthalazin-1(2H)-one] |
| < 100 nM | O=c1c2c(-c3cncnc3)cccc2cnn1CCc1ccc2ccccc2n1 [Example 124, 8-(Pyrimidin-5-yl)-2-[2-(quinolin-2-yl)ethyl]phthalazin-1(2H)-one] |
| 200 to 500 nM | COc1ncccc1-c1cccc2cnn(CCc3ccc4ccccc4n3)c(=O)c12 [Example 125, 8-(2-Methoxypyridin-3-yl)-2-[2-(quinolin-2-yl)ethyl]phthalazin-1(2H)-one] |
| < 100 nM | O=c1c2c(-c3cccnc3)cccc2cnn1CCc1ccc2ccccc2n1 [Example 126, 8-(Pyridin-3-yl)-2-[2-(quinolin-2-yl)ethyl]phthalazin-1(2H)-one] |
| < 100 nM | O=c1c2c(-c3ccoc3)cccc2cnn1CCc1ccc2ccccc2n1 [Example 127, 8-(Furan-3-yl)-2-[2-(quinolin-2-yl)ethyl]phthalazin-1(2H)-one] |
| 200 to 500 nM | O=c1c2c(-c3ccc4c(c3)CCO4)cccc2cnn1CCc1ccc2ccccc2n1 [Example 130, 8-(2,3-Dihydro-1-benzofuran-5-yl)-2-[2-(quinolin-2-yl)ethyl]phthalazin-1(2H)-one] |
| < 100 nM | COc1ccc(-c2cccc3cnn(CCc4ccc5ccccc5n4)c(=O)c23)cn1 [Example 133, 8-(6-Methoxypyridin-3-yl)-2-[2-(quinolin-2-yl)ethyl]phthalazin-1(2H)-one] |
| < 100 nM | Cc1cc(-c2cccc3cnn(CCc4ccc5ccccc5n4)c(=O)c23)ccn1 [Example 135, 8-(2-Methylpyridin-4-yl)-2-[2-(quinolin-2-yl)ethyl]phthalazin-1(2H)-one] |
| < 100 nM | COc1cncc(-c2cccc3cnn(CCc4ccc5ccccc5n4)c(=O)c23)c1 [Example 136, 8-(5-Methoxypyridin-3-yl)-2-[2-(quinolin-2-yl)ethyl]phthalazin-1(2H)-one] |
| < 100 nM | O=c1c2c(-c3cncc(F)c3)cccc2cnn1CCc1ccc2ccccc2n1 [Example 137, 8-(5-Fluoropyridin-3-yl)-2-[2-(quinolin-2-yl)ethyl]phthalazin-1(2H)-one] |
| 200 to 500 nM | O=c1c2c(-c3ccc4c(c3)OCO4)cccc2cnn1CCc1ccc2ccccc2n1 [Example 138, 8-(1,3-Benzodioxol-5-yl)-2-[2-(quinolin-2-yl)ethyl]phthalazin-1(2H)-one] |
| < 100 nM | Cn1cc(-c2cccc3cnn(CCc4ccc5ccccc5n4)c(=O)c23)cn1 [Example 139, 8-(1-Methyl-1H-pyrazol-4-yl)-2-[2-(quinolin-2-yl)ethyl]phthalazin-1(2H)-one] |
| 200 to 500 nM | CC(C)Cn1cc(-c2cccc3cnn(CCc4ccc5ccccc5n4)c(=O)c23)cn1 [Example 140, 8-[1-(2-Methylpropyl)-1H-pyrazol-4-yl]-2-[2-(quinolin-2-yl)ethyl]phthalazin-1(2H)-one] |
| 200 to 500 nM | O=c1c2c(-c3ccc(F)cc3Cl)cccc2cnn1CCc1ccc2ccccc2n1 [Example 143, 8-(2-Chloro-4-fluorophenyl)-2-[2-(quinolin-2-yl)ethyl]phthalazin-1(2H)-one] |

| IC50 | Structure (SMILES) |
| --- | --- |
| < 100 nM | O=c1c2c(-c3cccc(F)c3F)cccc2cnn1CCc1ccc2ccccc2n1 [Example 147, 8-(2,3-Difluorophenyl)-2-[2-(quinolin-2-yl)ethyl]phthalazin-1(2H)-one] |
| 100 to 200 nM | COc1ccc(-c2cccc3cnn(CCc4ccc5ccccc5n4)c(=O)c23)cc1OC [Example 148, 8-(3,4-Dimethoxyphenyl)-2-[2-(quinolin-2-yl)ethyl]phthalazin-1(2H)-one] |
| 200 to 500 nM | O=c1c2c(-c3ccc(F)c(F)c3)cccc2cnn1CCc1ccc2ccccc2n1 [Example 149, 8-(3,4-difluorophenyl)-2-[2-(quinolin-2-yl)ethyl]phthalazin-1(2H)-one] |
| 200 to 500 nM | COc1cc(OC)cc(-c2cccc3cnn(CCc4ccc5ccccc5n4)c(=O)c23)c1 [Example 152, 8-(3,5-Fimethoxyphenyl)-2-[2-(quinolin-2-yl)ethyl]phthalazin-1(2H)-one] |
| 100 to 200 nM | O=c1c2c(-c3cc(F)ccc3F)cccc2cnn1CCc1ccc2ccccc2n1 [Example 153, 8-(2,5-Difluorophenyl)-2-[2-(quinolin-2-yl)ethyl]phthalazin-1(2H)-one] |
| 200 to 500 nM | COc1ccc(-c2cccc3cnn(CCc4ccc5ccccc5n4)c(=O)c23)cc1F [Example 154, 8-(3-Fluoro-4-methoxyphenyl)-2-[2-(quinolin-2-yl)ethyl]phthalazin-1(2H)-one] |
| 100 to 200 nM | O=c1c2c(-c3cc(F)cc(F)c3)cccc2cnn1CCc1ccc2ccccc2n1 [Example 156, 8-(3,5-Difluorophenyl)-2-[2-(quinolin-2-yl)ethyl]phthalazin-1(2H)-one] |
| 200 to 500 nM | COc1cc(F)cc(-c2cccc3cnn(CCc4ccc5ccccc5n4)c(=O)c23)c1 [Example 157, 8-(3-Fluoro-5-methoxyphenyl)-2-[2-(quinolin-2-yl)ethyl]phthalazin-1(2H)-one] |
| < 100 nM | O=c1c2c(-c3ccccc3)cccc2cnn1CCc1ccc2ccccc2n1 [Example 159, 8-Phenyl-2-[2-(quinolin-2-yl)ethyl]phthalazin-1(2H)-one] |
| < 100 nM | Cn1nccc1-c1cccc2cnn(CCc3ccc4ccccc4n3)c(=O)c12 [Example 161, 8-(1-Methyl-1H-pyrazol-5-yl)-2-[2-(quinolin-2-yl)ethyl]phthalazin-1(2H)-one hydrochloride] |
| 200 to 500 nM | Cc1ccc(-c2cccc3cnn(CCc4ccc5ccccc5n4)c(=O)c23)c(F)c1 [Example 163, 8-(2-Fluoro-4-methylphenyl)-2-[2-(quinolin-2-yl)ethyl]phthalazin-1(2H)-one] |
| 200 to 500 nM | O=c1c2c(-c3cccnc3)cccc2cnn1CCc1cn2ccccc2n1 [Example 165, 2-[2-(Imidazo[1,2-a]pyridin-2-yl)ethyl]-8-(pyridin-3-yl)phthalazin-1(2H)-one] |
| < 100 nM | O=c1c2c(-c3ccncc3)cccc2cnn1CCc1cn2ccccc2n1 [Example 166, 2-[2-(Imidazo[1,2-a]pyridin-2-yl)ethyl]-8-(pyridin-4-yl)phthalazin-1(2H)-one] |
| 200 to 500 nM | COc1cnccc1-c1cccc2cnn(CCc3cn4ccccc4n3)c(=O)c12 [Example 167, 2-[2-(Imidazo[1,2-a]pyridin-2-yl)ethyl]-8-(3-methoxypyridin-4-yl)phthalazin-1(2H)-one] |
| < 100 nM | O=c1c2c(-c3cncnc3)cccc2cnn1CCc1cn2ccccc2n1 [Example 168, 2-[2-(Imidazo[1,2-a]pyridin-2-yl)ethyl]-8-(pyrimidin-5-yl)phthalazin-1(2H)-one] |
| 200 to 500 nM | Cn1ccc(-c2cccc3cnn(CCc4cn5ccccc5n4)c(=O)c23)n1 [Example 169, 2-[2-(Imidazo[1,2-a]pyridin-2-yl)ethyl]-8-(1-methyl-1H-pyrazol-3-yl)phthalazin-1(2H)-one] |
| < 100 nM | O=c1c2c(-c3ccoc3)cccc2cnn1CCc1cn2ccccc2n1 [Example 170, 8-(Furan-3-yl)-2-[2-(Imidazo[1,2-a]pyridin-2-yl)ethyl]phthalazin-1(2H)-one] |
| < 100 nM | O=C1Cc2ccc(-c3cccc4cnn(CCc5cn6ccccc6n5)c(=O)c34)cc2N1 [Example 171, 2-[2-(Imidazo[1,2-a]pyridin-2-yl)ethyl]-8-(2-oxo-2,3-dihydro-1H-indol-6-yl)phthalazin-1(2H)-one] |
| < 100 nM | O=c1c2c(N3CCS(=O)(=O)CC3)cccc2cnn1CCc1ccc2ccccc2n1 [Example 173, 8-(1,1-Dioxidothiomorpholin-4-yl)-2-[2-(quinolin-2-yl)ethyl]-phthalazin-1(2H)-one] |
| < 100 nM | O=c1c2c(N3CCOCC3)cccc2cnn1CCc1cn2ccccc2n1 [Example 174, 2-[2-(Imidazo[1,2-a]pyridin-2-yl)ethyl]-8-(morpholin-4-yl)phthalazin-1(2H)-one] |
| 100 to 200 nM | O=c1c2c(N3CCS(=O)(=O)CC3)cccc2cnn1CCc1cn2ccccc2n1 [Example 175, 8-(1,1-Dioxidothiomorpholin-4-yl)-2-[2-(imidazo[1,2-a]pyridin-2-yl)ethyl]phthalazin-1(2H)-one] |
